In patent publication US9833497B2, “Human originated EGF domain proteins and use of the same” (CHENGDU SOURCEBIO LIMITED-LIABILITY COMPANY, priority 2013, dated 2017):

What was measured:
Type in all cases: cell-based
Klebsiella pneumonia = test: MIC against Gram-negative bacteria: Klebsiella pneumonia; conditions: 5×10^5 CFU/mL; for MIC (μg/mL) K. pneumonia: 10 h cultivation at 37° C.
Method in brief: (§1)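 The recombinant human-originated EGF domain proteins were serially diluted two-fold against bacteria at 5×10^5 CFU/mL in LB medium. After shaken incubation at 37° C, the lowest concentration with no bacterial growth was recorded as the MIC.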

Proteus mirabilis = test: MIC against Gram-negative bacteria: Proteus mirabilis; conditions: 5×10^5 CFU/mL; for MIC (μg/mL) P. mirabilis: 10 h cultivation at 37° C.
Method in brief: as §1

Enterobacter cloacae = test: MIC against Gram-negative bacteria: Enterobacter cloacae; conditions: 5×10^5 CFU/mL; for MIC (μg/mL) E. cloacae: 10 h cultivation at 37° C.
Method in brief: as §1

Serratia marcescens = test: MIC against Gram-negative bacteria: Serratia marcescens; conditions: 5×10^5 CFU/mL; for MIC (μg/mL) S. marcescens: 10 h cultivation at 37° C.
Method in brief: as §1

Aeromonas hydrophila = test: MIC against Gram-negative bacteria: Aeromonas hydrophila; conditions: 5×10^5 CFU/mL; for MIC (μg/mL) A. hydrophila: 10 h cultivation at 37° C.
Method in brief: as §1

Moraxella catarrhalis = test: MIC against Gram-negative bacteria: Moraxella catarrhalis; conditions: 5×10^5 CFU/mL; for MIC (μg/mL) M. catarrhalis: 10 h cultivation at 37° C.
Method in brief: as §1

Citrobacter diversus = test: MIC against Gram-negative bacteria: Citrobacter diversus; conditions: 5×10^5 CFU/mL; for MIC (μg/mL) C. diversus: 10 h cultivation at 37° C.
Method in brief: as §1

Proteus vulgaris = test: MIC against Gram-negative bacteria: Proteus vulgaris; conditions: 5×10^5 CFU/mL; for MIC (μg/mL) P. vulgaris: 10 h cultivation at 37° C.
Method in brief: as §1

Pseudomonas aeruginosa = test: MIC against Gram-negative bacteria: Pseudomonas aeruginosa; conditions: 5×10^5 CFU/mL; for MIC (μg/mL) P. aeruginosa: 10 h cultivation at 37° C.
Method in brief: as §1

E. coli BL21 = test: MIC against Gram-negative bacteria: E. coli BL21; conditions: 5×10^5 CFU/mL; for MIC (μg/mL) E. coli BL21: 10 h cultivation at 37° C.
Method in brief: as §1

E. coli DH5α = test: Antibacterial activity: MIC and growth curve against E. coli DH5α in 96-well plate; conditions: minimal inhibitory concentration against E. coli DH5α; 96-well plate, 5×10^5 CFU/mL, 37° C., judged after 8 h
Method in brief: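 MIC taken as lowest protein level with no bacterial growth, tracked by A600 every 30 min during 37 °C, 175 rpm culture. Two-fold protein series 50-12.5 μg/mL final, triplicate wells, against 5×10^5 CFU/mL of LB-washed mid-log cells.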

PRT878 (ADPLCAPARNPCANGGLCTVLAPGEVGCDCSHTGFGGKFCS; listed as Homo sapiens)
12.5 µg/mL: MIC (μg/mL) E. cloacae (Enterobacter cloacae) | MIC (μg/mL) S. marcescens (Serratia marcescens) | MIC (μg/mL) C. diversus (Citrobacter diversus) | MIC (μg/mL) P. aeruginosa (Pseudomonas aeruginosa)
25 µg/mL: MIC (μg/mL) M. catarrhalis (Moraxella catarrhalis) | MIC (μg/mL) P. vulgaris (Proteus vulgaris) | MIC (μg/mL) E. coli BL21 (E. coli BL21; E. coli BL21)
50 µg/mL: MIC (μg/mL) K. pneumonia (Klebsiella pneumonia) | MIC (μg/mL) P. mirabilis (Proteus mirabilis) | MIC (μg/mL) A. hydrophila (Aeromonas hydrophila) | MIC (E. coli DH5α)

PRT718 (MTLCSALNCQYQCHETPYGGACFCPPGYIINHNDSRTCV; listed as Homo sapiens)
25 µg/mL: MIC K. pneumonia (Klebsiella pneumonia; 96-well plate, 37° C., 10 h) | MIC P. mirabilis (Proteus mirabilis; 96-well plate, 37° C., 10 h) | MIC E. cloacae (Enterobacter cloacae; 96-well plate, 37° C., 10 h) | MIC A. hydrophila (Aeromonas hydrophila; 96-well plate, 37° C., 10 h) | MIC C. diversus (Citrobacter diversus; 96-well plate, 37° C., 10 h) | MIC E. coli BL21 (E. coli BL21; 96-well plate, 37° C., 10 h)
50 µg/mL: MIC P. vulgaris (Proteus vulgaris; 96-well plate, 37° C., 10 h) | MIC P. aeruginosa (Pseudomonas aeruginosa; 96-well plate, 37° C., 10 h)
12.5 µg/mL: MIC S. marcescens (Serratia marcescens; 96-well plate, 37° C., 10 h) | MIC M. catarrhalis (Moraxella catarrhalis; 96-well plate, 37° C., 10 h) | MIC (E. coli DH5α)

PRT1337 (QTSACGPYVQFCHIHATCEYSNGTASCICKAGYEGDGTLCS; listed as Homo sapiens)
25 µg/mL: MIC against K. pneumonia (Klebsiella pneumonia; Klebsiella pneumonia, 96-well plate, 37° C., 10 h) | MIC against P. mirabilis (Proteus mirabilis; Proteus mirabilis, 96-well plate, 37° C., 10 h) | MIC against A. hydrophila (Aeromonas hydrophila; Aeromonas hydrophila, 96-well plate, 37° C., 10 h) | MIC against C. diversus (Citrobacter diversus; Citrobacter diversus, 96-well plate, 37° C., 10 h)
50 µg/mL: MIC against E. cloacae (Enterobacter cloacae; Enterobacter cloacae, 96-well plate, 37° C., 10 h) | MIC against P. vulgaris (Proteus vulgaris; Proteus vulgaris, 96-well plate, 37° C., 10 h) | MIC against E. coli BL21 (E. coli BL21; E. coli BL21, 96-well plate, 37° C., 10 h)
12.5 µg/mL: MIC against S. marcescens (Serratia marcescens; Serratia marcescens, 96-well plate, 37° C., 10 h) | MIC against M. catarrhalis (Moraxella catarrhalis; Moraxella catarrhalis, 96-well plate, 37° C., 10 h) | MIC against P. aeruginosa (Pseudomonas aeruginosa; Pseudomonas aeruginosa, 96-well plate, 37° C., 10 h) | MIC (E. coli DH5α)

PRT848 (CQCNNRSASCDALTGACLNCQENSKGNHCEECKEGFYQSPDATKECLR; listed as Homo sapiens)
25 µg/mL: MIC (μg/mL) K. pneumonia (Klebsiella pneumonia) | MIC (μg/mL) P. vulgaris (Proteus vulgaris) | MIC (μg/mL) P. aeruginosa (Pseudomonas aeruginosa) | MIC (E. coli DH5α)
50 µg/mL: MIC (μg/mL) P. mirabilis (Proteus mirabilis) | MIC (μg/mL) E. cloacae (Enterobacter cloacae) | MIC (μg/mL) C. diversus (Citrobacter diversus)
12.5 µg/mL: MIC (μg/mL) S. marcescens (Serratia marcescens) | MIC (μg/mL) A. hydrophila (Aeromonas hydrophila) | MIC (μg/mL) M. catarrhalis (Moraxella catarrhalis) | MIC (μg/mL) E. coli BL21 (E. coli BL21; E. coli BL21)

PRT167 (TPNPCENDGVCTDIGGDFRCRCPAGFIDKTC; listed as Homo sapiens)
12.5 µg/mL: MIC (μg/mL) E. cloacae (Enterobacter cloacae) | MIC (μg/mL) S. marcescens (Serratia marcescens) | MIC (μg/mL) A. hydrophila (Aeromonas hydrophila) | MIC (μg/mL) M. catarrhalis (Moraxella catarrhalis) | MIC (μg/mL) P. aeruginosa (Pseudomonas aeruginosa) | MIC (E. coli DH5α)
25 µg/mL: MIC (μg/mL) P. mirabilis (Proteus mirabilis) | MIC (μg/mL) C. diversus (Citrobacter diversus) | MIC (μg/mL) P. vulgaris (Proteus vulgaris)
50 µg/mL: MIC (μg/mL) K. pneumonia (Klebsiella pneumonia) | MIC (μg/mL) E. coli BL21 (E. coli BL21; E. coli BL21)

PRT170 (CTHHKPCKNGATCTNTGQGSYTCSCRPGYTGATC; listed as Homo sapiens)
12.5 µg/mL: MIC (μg/mL) S. marcescens (Serratia marcescens) | MIC (μg/mL) C. diversus (Citrobacter diversus) | MIC (μg/mL) P. aeruginosa (Pseudomonas aeruginosa)
25 µg/mL: MIC (μg/mL) K. pneumonia (Klebsiella pneumonia) | MIC (μg/mL) A. hydrophila (Aeromonas hydrophila) | MIC (μg/mL) M. catarrhalis (Moraxella catarrhalis) | MIC (μg/mL) P. vulgaris (Proteus vulgaris) | MIC (μg/mL) E. coli BL21 (E. coli BL21; E. coli BL21)
50 µg/mL: MIC (μg/mL) P. mirabilis (Proteus mirabilis) | MIC (μg/mL) E. cloacae (Enterobacter cloacae) | MIC (E. coli DH5α)
